# According to US5863716A, “Treatment of plasmodium” (The Leland Stanford Junior University Board of Trustees, priority 1997, dated 1999):
# Columns and labels:
# sphingomyelin synthase = assay: Inhibition of sphingomyelin biosynthesis in hypotonically lysed infected erythrocytes and fractions; type: biochemical, Plasmodium falciparum
# Experimental: 1×10^8 infected cells 24 h after invasion were washed serum-free in RPMI 1640 and preincubated for thirty min at 37° C. in 1 ml of RPMI 1640 containing 0-5 μM or 0-500 μM of PPMP. (C6-NBD-ceramide (N-[7-(4-nitrobenzo-2-oxa-1,3-diazide)]-6-aminocaproyl-D-erythro-sphingosine) was added to each sample at a final concentration of 5 μM, the samples further incubated for 30 min at 37° C. and cellular lipids extracted. C6-NBD-sphingomyelin was resolved by TLC and quantitated by fluorescence spectrophotometry as described previously. Bligh, E. G. and Dyer, W. Y. (1959) A rapid method for total lipid extraction and purification., Can. J. Biochem. Physiol. 37: 911-917. Haldar, K., Uyetake, L., Ahori, N., Elmendorf, H. G. and Lu, W-1. (1991) The accumulation and metabolism of a fluorescent ceramide derivative in Plasmodium falciparum--infected erythrocytes., Mo. Biochem. Parasitol. 49: 143-156. Elmendorf, H. G. and Haldar, K. (1994) Plasmodium falciparum exports the Golgi marker sphingomyelin synthase into a tubovesicular network in the cytoplasm of mature erythrocytes., J. Cell Biol. 124: 449-462. Each value obtained represented the mean of triplicate determinations from five experiments. The arrow bars indicate the standard deviations. The results are depicted in FIG. 1.
# Cells were washed serum-free in PBS and intact cells were incubated in PBS. Cells were lysed in 10 volumes of hypotonic buffer. Pellets and supernatants were separated by centrifugation at 10^4 ×G for 10 min at 4° C. Inhibition of sphingomyelin biosynthetic activity was carried out as described in Example 1. Glutamate dehydrogenase, a parasite cytosolic activity, was assayed using 10 μM alpha-ketoglutarate and 0.1 μM NADPH for 1 h at 37° C. by measuring the absorption at 340 nm in a spectrophotometer. The following table indicates the results
# P. falciparum = assay: Intraerythrocytic development in long term synchronized culture, parasitemia over consecutive cycles; type: cell-based, Plasmodium falciparum
# Experimental: Synchronized cultures 12 h after invasion were subjected to different concentrations of PPMP. Parasitemias of drug-treated cultures were determined at various time points during two intraerythrocytic cycles and compared to cells grown in the absence of drug.
# The effect of the single lipid analogs to inhibit parasite development in long term culture in consecutive cycles of the parasite growth were investigated. The studies were initiated with synchronized, young rings (0-12h) at 10% parasitemia. In order to ensure healthy growth of the malaria parasite in vitro, the parasitemias of the cultures are not allowed to exceed 10%. Yet under normal conditions a 3-6 fold increase in parasitemias is detected with each round of invasion: thus for each new cycle, the cultures were diluted 4-fold into fresh erythrocytes in the absence or presence of the drug. […] The lowest effective, killing concentration of PDMP over three cycles of growth is 1.0 μM.
# P. chabaudi = assay: Single cycle of expansion in culture, mouse malaria; type: cell-based
# Text: (§1) The human malaria parasite P. falciparum can be grown in monkeys but not in rodents. However, since primates are expensive, rodents are used as a animal first screen. P. yoelii and P. chabaudi are commonly used strains of mouse malaria.
# P. yoelii = assay: as above; type: cell-based
# Text: as §1
# [1] = PPMP 0.05 μM, time in drug 0 h, time of cycle 12 h, cycle 1
# [2] = PPMP 0.05 μM, time in drug 34 h, time of cycle 46 h, cycle 1, culture fourfold diluted
# [3] = PPMP 0.05 μM, time in drug 60 h, time of cycle 12 h, cycle 2
# [4] = PPMP 0.05 μM, time in drug 80 h, time of cycle 32 h, cycle 2, culture fourfold diluted
# [5] = PPMP 0.05 μM, time in drug 104 h, time of cycle 8 h, cycle 3
# [6] = PPMP 0.1 μM, time in drug 0 h, time of cycle 12 h, cycle 1
# [7] = PPMP 0.1 μM, time in drug 34 h, time of cycle 46 h, cycle 1, culture fourfold diluted
# [8] = PPMP 0.1 μM, time in drug 60 h, time of cycle 12 h, cycle 2
# [9] = PPMP 0.1 μM, time in drug 80 h, time of cycle 32 h, cycle 2, culture fourfold diluted
# [10] = PPMP 0.1 μM, time in drug 104 h, time of cycle 8 h, cycle 3
# [11] = PPMP 0.5 μM, time in drug 0 h, time of cycle 12 h, cycle 1
# [12] = PPMP 0.5 μM, time in drug 34 h, time of cycle 46 h, cycle 1, culture fourfold diluted
# [13] = PPMP 0.5 μM, time in drug 60 h, time of cycle 12 h, cycle 2
# [14] = PPMP 0.5 μM, time in drug 80 h, time of cycle 32 h, cycle 2, culture fourfold diluted
# [15] = PPMP 0.5 μM, time in drug 104 h, time of cycle 8 h, cycle 3
# [16] = PPMP 1.0 μM, time in drug 0 h, time of cycle 12 h, cycle 1
# [17] = PPMP 1.0 μM, time in drug 34 h, time of cycle 46 h, cycle 1, culture fourfold diluted
# [18] = PPMP 1.0 μM, time in drug 60 h, time of cycle 12 h, cycle 2
# [19] = PPMP 1.0 μM, time in drug 80 h, time of cycle 32 h, cycle 2, culture fourfold diluted
# [20] = PPMP 1.0 μM, time in drug 104 h, time of cycle 8 h, cycle 3
# [21] = PPMP 5.0 μM, time in drug 0 h, time of cycle 12 h, cycle 1
# [22] = PPMP 5.0 μM, time in drug 34 h, time of cycle 46 h, cycle 1, culture fourfold diluted
# [23] = PPMP 5.0 μM, time in drug 60 h, time of cycle 12 h, cycle 2
# [24] = PPMP 5.0 μM, time in drug 80 h, time of cycle 32 h, cycle 2, culture fourfold diluted
# [25] = PPMP 5.0 μM, time in drug 104 h, time of cycle 8 h, cycle 3
smiles,measurement,setting,value
"CCCCCCCCCCCCCCCC(=O)N[C@H](CN1CCOCC1)[C@H](O)c1ccccc1 (relative stereo) [PPMP, dl-threo-1-phenyl-2-palmitoylamino-3-morpholino-1-propanol]",inhibition of sphingomyelin biosynthesis at 5 μM PPMP [%],sphingomyelin synthase; hypotonic lysates,33%
same,inhibition of sphingomyelin biosynthesis at 5 μM PPMP [%],sphingomyelin synthase; pellet of lysate (10^4 x G),30%
same,inhibition of sphingomyelin biosynthesis at 5 μM PPMP [%],sphingomyelin synthase; supernatant of lysate (10^4 x G),3%
same,effect on trophozoite stage parasites,P. falciparum,blocks the development of trophozoite stage parasites
same,effect on ring development,"P. falciparum; 5 μM, first cycle",completely inhibits rings in their first cycle growth
same,growth inhibition with increasing concentration,P. falciparum; 0.05 to 1.0 μM PPMP,gradual increase in the observed growth inhibition
same,"parasitemia [%], ring",P. falciparum; [1],10%
same,"parasitemia [%], schizont",P. falciparum; [1],0%
same,"parasitemia [%], trophozoite",P. falciparum; [1],0%
same,"parasitemia [%], ring",P. falciparum; [2],0%
same,"parasitemia [%], schizont",P. falciparum; [2],5%
same,"parasitemia [%], trophozoite",P. falciparum; [2],4%
same,"parasitemia [%], ring",P. falciparum; [3],5%
same,"parasitemia [%], schizont",P. falciparum; [3],1%
same,"parasitemia [%], trophozoite",P. falciparum; [3],0%
same,"parasitemia [%], ring",P. falciparum; [4],5%
same,"parasitemia [%], schizont",P. falciparum; [4],0%
same,"parasitemia [%], trophozoite",P. falciparum; [4],0%
same,"parasitemia [%], ring",P. falciparum; [5],1%
same,"parasitemia [%], schizont",P. falciparum; [5],0%
same,"parasitemia [%], trophozoite",P. falciparum; [5],0%
same,"parasitemia [%], ring",P. falciparum; [6],10%
same,"parasitemia [%], schizont",P. falciparum; [6],0%
same,"parasitemia [%], trophozoite",P. falciparum; [6],0%
same,"parasitemia [%], ring",P. falciparum; [7],0%
same,"parasitemia [%], schizont",P. falciparum; [7],5%
same,"parasitemia [%], trophozoite",P. falciparum; [7],4%
same,"parasitemia [%], ring",P. falciparum; [8],4%
same,"parasitemia [%], schizont",P. falciparum; [8],1%
same,"parasitemia [%], trophozoite",P. falciparum; [8],0%
same,"parasitemia [%], ring",P. falciparum; [9],4%
same,"parasitemia [%], schizont",P. falciparum; [9],0%
same,"parasitemia [%], trophozoite",P. falciparum; [9],0%
same,"parasitemia [%], ring",P. falciparum; [10],1%
same,"parasitemia [%], schizont",P. falciparum; [10],0%
same,"parasitemia [%], trophozoite",P. falciparum; [10],0%
same,"parasitemia [%], ring",P. falciparum; [11],10%
same,"parasitemia [%], schizont",P. falciparum; [11],0%
same,"parasitemia [%], trophozoite",P. falciparum; [11],0%
same,"parasitemia [%], ring",P. falciparum; [12],0%
same,"parasitemia [%], schizont",P. falciparum; [12],4%
same,"parasitemia [%], trophozoite",P. falciparum; [12],5%
same,"parasitemia [%], ring",P. falciparum; [13],4%
same,"parasitemia [%], schizont",P. falciparum; [13],1%
same,"parasitemia [%], trophozoite",P. falciparum; [13],0%
same,"parasitemia [%], ring",P. falciparum; [14],5%
same,"parasitemia [%], schizont",P. falciparum; [14],0%
same,"parasitemia [%], trophozoite",P. falciparum; [14],0%
same,"parasitemia [%], ring",P. falciparum; [15],1%
same,"parasitemia [%], schizont",P. falciparum; [15],0%
same,"parasitemia [%], trophozoite",P. falciparum; [15],0%
same,"parasitemia [%], ring",P. falciparum; [16],10%
same,"parasitemia [%], schizont",P. falciparum; [16],0%
same,"parasitemia [%], trophozoite",P. falciparum; [16],0%
same,"parasitemia [%], ring",P. falciparum; [17],0%
same,"parasitemia [%], schizont",P. falciparum; [17],4%
same,"parasitemia [%], trophozoite",P. falciparum; [17],4%
same,"parasitemia [%], ring",P. falciparum; [18],3%
same,"parasitemia [%], schizont",P. falciparum; [18],2%
same,"parasitemia [%], trophozoite",P. falciparum; [18],0%
same,"parasitemia [%], ring",P. falciparum; [19],3%
same,"parasitemia [%], schizont",P. falciparum; [19],0%
same,"parasitemia [%], trophozoite",P. falciparum; [19],0%
same,"parasitemia [%], ring",P. falciparum; [20],1%
same,"parasitemia [%], schizont",P. falciparum; [20],0%
same,"parasitemia [%], trophozoite",P. falciparum; [20],0%
same,"parasitemia [%], ring",P. falciparum; [21],10%
same,"parasitemia [%], schizont",P. falciparum; [21],0%
same,"parasitemia [%], trophozoite",P. falciparum; [21],0%
same,"parasitemia [%], ring",P. falciparum; [22],9%
same,"parasitemia [%], schizont",P. falciparum; [22],0%
same,"parasitemia [%], trophozoite",P. falciparum; [22],0%
same,"parasitemia [%], ring",P. falciparum; [23],2%
same,"parasitemia [%], schizont",P. falciparum; [23],0%
same,"parasitemia [%], trophozoite",P. falciparum; [23],0%
same,"parasitemia [%], ring",P. falciparum; [24],0%
same,"parasitemia [%], schizont",P. falciparum; [24],0%
same,"parasitemia [%], trophozoite",P. falciparum; [24],0%
same,"parasitemia [%], ring",P. falciparum; [25],0%
same,"parasitemia [%], schizont",P. falciparum; [25],0%
same,"parasitemia [%], trophozoite",P. falciparum; [25],0%
same,effect on development,"P. falciparum; concentrations as low as 0.05 μM, first cycle",do not stop development through the first cycle
same,efficacy compared with PDMP,P. falciparum; long term culture,more effective than PDMP
same,effect on parasite in a single cycle of expansion in culture,P. chabaudi,inhibited
same,effect on parasite in a single cycle of expansion in culture,P. yoelii,inhibited
